Measured values reported in PubChem BioAssay AID434951 (Broad Institute, 2010).
Calls of active or inactive are those of the source.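 Rule for the calls: active = a fitted half-maximal concentration EC50 for the rise in nuclear signal no higher than ten times the top dose tested; inconclusive = flat fit with activity between 30% and 70%, or unusable fit; inactive = EC50 beyond ten times the top dose.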

Biological target: Hypoxia-inducible factor 1-alpha (Homo sapiens) (UniProt Q16665)
Assay: HIF pathway activation, GFP-HIF1alpha translocation – imaging, fluorescence, U2OS GFP-HIF1alpha, confirmation (AID 434951)
Conditions: U2OS GFP-HIF1alpha nuclear intensity, high-content imaging

Sequence of Hypoxia-inducible factor 1-alpha (Homo sapiens) (Q16665 whole entry, looked up): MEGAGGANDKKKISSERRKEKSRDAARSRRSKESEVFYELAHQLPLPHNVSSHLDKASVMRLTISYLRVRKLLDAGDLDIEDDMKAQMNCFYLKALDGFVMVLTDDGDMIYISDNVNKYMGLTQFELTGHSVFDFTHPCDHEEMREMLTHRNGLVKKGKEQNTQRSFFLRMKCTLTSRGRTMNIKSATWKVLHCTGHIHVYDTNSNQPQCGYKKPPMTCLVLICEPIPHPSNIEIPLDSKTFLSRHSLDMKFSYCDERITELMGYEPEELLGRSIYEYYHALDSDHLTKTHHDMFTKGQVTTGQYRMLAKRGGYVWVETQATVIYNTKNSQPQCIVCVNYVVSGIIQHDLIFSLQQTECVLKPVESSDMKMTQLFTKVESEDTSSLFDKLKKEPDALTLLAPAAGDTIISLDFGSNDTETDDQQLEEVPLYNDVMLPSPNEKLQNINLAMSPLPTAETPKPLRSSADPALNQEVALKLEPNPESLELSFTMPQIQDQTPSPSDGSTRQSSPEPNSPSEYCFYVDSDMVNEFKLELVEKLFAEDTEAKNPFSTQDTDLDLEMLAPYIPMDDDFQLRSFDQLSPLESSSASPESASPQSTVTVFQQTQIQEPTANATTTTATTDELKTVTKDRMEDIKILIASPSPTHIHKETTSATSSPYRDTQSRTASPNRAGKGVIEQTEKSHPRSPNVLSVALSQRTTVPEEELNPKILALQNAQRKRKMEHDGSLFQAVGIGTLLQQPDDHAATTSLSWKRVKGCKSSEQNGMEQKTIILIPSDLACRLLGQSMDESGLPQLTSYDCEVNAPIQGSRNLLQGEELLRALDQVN

| Compound | EC50 |
| --- | --- |
| CCCn1c(SCC(=O)N2CCc3ccccc3C2)nc2c1c(=O)n(C)c(=O)n2C | > 35 µM (inactive) |
| COc1ccc2oc(C(=O)OCC(=O)Nc3ccccc3OC)c(C)c2c1 | > 35 µM (inactive) |
| CCOCC(=O)Nc1ccc(S(=O)(=O)N2CCC(c3nc4ccccc4[nH]3)CC2)cc1 | > 35 µM (inactive) |
| CCOc1ccc2c(c1)c1nnc(SCC3CCCO3)nc1n2C (stereo not drawn) | > 35 µM (inactive) |
| O=C(CN1C(=O)COc2ccc(Cl)cc21)Nc1ccc2c(c1)OCCO2 | > 35 µM (inactive) |
| CCCc1sc(N/N=C/c2ccccn2)nc1-c1ccc(F)cc1 | 6.01 µM |
| Oc1ccccc1/C=N/Nc1ncc(Br)cn1 | 13.4 µM |
| CC(=O)Nc1nc(C)c(-c2csc(Nc3ccccn3)n2)s1 | > 35 µM (inactive) |
| Cc1ccc(NC(=O)Nc2cccc(F)c2)nc1 | > 35 µM (inactive) |
| Cc1ccc(C2=NOC(=O)/C2=C\c2ccccc2)cc1 | > 35 µM (inactive) |
| CCOC(=O)C1=C(c2ccccc2)NC(=O)NC1c1ccc(O)c(Cl)c1 (stereo not drawn) | 12.7 µM |
| CCCCCC(=O)NNC(=S)NC(=O)c1cccc([N+](=O)[O-])c1 | > 35 µM (inactive) |
| CCCCCCCC1CC(=O)C=C(C)C1C(=O)OCC (stereo not drawn) | > 35 µM (inactive) |
| Cc1ccccc1NC(=O)c1ccccc1O | > 35 µM (inactive) |
| CC1SC(=NC(=O)c2ccncc2)NC1=O (stereo not drawn) | > 35 µM (inactive) |
| O=C(c1ccc(OC2CCN(Cc3ccc(F)cc3)CC2)cc1)N1CCCC1 | > 35 µM (inactive) |
| Cc1sc2cc3c(c(C(=O)c4ccccc4)[n+]2c1C)-c1cccc2cccc-3c12 | > 35 µM (inactive) |
| COc1cc2ncnc(NCc3cccs3)c2cc1OC | > 35 µM (inactive) |
| Cc1ccc(-c2cc(C(=O)Nc3cccnc3)[nH]n2)c(O)c1C | > 35 µM (inactive) |
| O=C(Nc1cccc(Cl)c1)Nc1cccc(C(=O)O)c1 | > 35 µM (inactive) |
| Cc1ccc(/C=C(\C#N)c2nn(-c3ccccc3)c(N)c2C#N)cc1 | > 35 µM (inactive) |
| COc1ccc2nc(NC(=O)CSc3nccc(C)n3)sc2c1 | > 35 µM (inactive) |
| COC(=O)/C(C#N)=C/c1c(N2CCN(Cc3ccc4c(c3)OCO4)CC2)nc2c(C)cccn2c1=O | > 35 µM (inactive) |
| Cc1ccccc1N=Nc1ccc(O)c2ncccc12 | 5.04 µM |
| COCCn1c(-c2ccc(OC)cc2)cnc1SCC(=O)Nc1ccc(OC)cc1OC | > 35 µM (inactive) |
| Cc1ccc(NC(=O)Cn2cnc3c(=O)n(C)c(=O)n(C)c32)c(C)c1 | > 35 µM (inactive) |

| Compound | EC50 |
| --- | --- |
| CC(=O)OCCCNc1cc(Sc2ccc(C)cc2)c2nonc2c1[N+](=O)[O-] | > 35 µM (inactive) |
| O=C(O)c1ccccc1Nc1ccc([N+](=O)[O-])cc1C(=O)O | > 35 µM (inactive) |
| CCOC(=O)Cc1nn(CC)c(=O)c2ccccc12 | > 35 µM (inactive) |
| COc1ccc(CC(=O)N2CCN(C(=O)Cc3ccc(OC)cc3)CC2)cc1 | > 35 µM (inactive) |
| O=C(Nc1nc(-c2ccccn2)cs1)c1ccc(S(=O)(=O)N2CCCCC2)cc1 | 7.12 µM |
| COC(CN(C(=O)CCl)C(C(=O)NC1CCCCC1)c1ccc(Cl)cc1)OC (stereo not drawn) | 19 µM |
| O=C1CCCc2ccccc2N1Cc1ccc(F)cc1 | > 35 µM (inactive) |
| Cn1nnc(NC(=O)c2cccc([N+](=O)[O-])c2)n1 | > 35 µM (inactive) |
| CCOC(=O)c1c(NS(=O)(=O)c2ccccc2)n(CCCOC)c2nc3ccccc3nc12 | > 35 µM (inactive) |
| COc1ccc(/C=N/NC(=S)Nc2cc(S(=O)(=O)N3CCOCC3)ccc2N2CCOCC2)cc1O | > 35 µM (inactive) |
| CC1CC(C)CN(S(=O)(=O)c2ccc3c(c2)oc(=O)n3CC(=O)NCCCOC(C)C)C1 (stereo not drawn) | > 35 µM (inactive) |
| O=C(Nc1ncc2c(n1)CC(c1ccco1)CC2=O)c1ccccc1 (stereo not drawn) | > 35 µM (inactive) |
| CC(C)(C)NC(=O)CN(Cc1ccc2c(c1)OCO2)C(=O)CNS(=O)(=O)c1ccc(F)cc1 | > 35 µM (inactive) |
| O=C(NC(=S)Nc1ccccn1)c1cccc([N+](=O)[O-])c1 | > 35 µM (inactive) |
| COc1cc(/C=C/C(=O)c2ccc3c(c2)OCCO3)cc(Br)c1OCC(=O)N(C)C | > 35 µM (inactive) |
| O=C(CN1CCCC1)N/N=C/c1c(O)ccc2ccccc12 | 8.15 µM |
| CCSc1cc(C)nc2c(-c3ccccc3)cnn12 | > 35 µM (inactive) |
| COc1cnc(-c2ccccn2)nc1NC(C)C | 1.85 µM |
| CCOC(=O)c1cnc(-n2nc(C)cc2C)nc1NNc1nc(-c2ccccc2)cc(-c2ccccc2)n1 | 1.81 µM |
| O=C(NCCCn1ccnc1)c1cc(-c2ccccc2)on1 | 3.8 µM |
| C/C(=N\O)C(=O)Nc1ccccc1 | > 35 µM (inactive) |
| CCCCCN(C(=O)CCC(=O)OCC(=O)c1ccc(C(C)CC)cc1)c1c(N)n(CCCC)c(=O)[nH]c1=O (stereo not drawn) | > 35 µM (inactive) |
| Cc1c(Cl)c([N+](=O)[O-])nn1Cc1ccc(C(=O)N/N=C\c2cc(Cl)ccc2O)o1 | 9.26 µM |
| O=C(Nc1nc(-c2ccccn2)cs1)c1cc(Cl)ccc1[N+](=O)[O-] | 9.95 µM |
| CCN(C(=O)CSc1ncn[nH]1)C1CCCCC1 | > 35 µM (inactive) |
| COc1ccc2nc(NC(=O)c3cccs3)sc2c1 | > 35 µM (inactive) |

| Compound | EC50 |
| --- | --- |
| Cc1cc(C)c2nc(NNC(=O)c3ccc(S(=O)(=O)N4CCCC(C)C4)cc3)sc2c1 (stereo not drawn) | 7.23 µM |
| CC(=O)c1cccc(NC(=O)CN(C)S(=O)(=O)c2cccc3nsnc23)c1 | > 35 µM (inactive) |
| O=C(COc1ccc(Cl)cc1Cl)N/N=C/CCc1ccccc1 | > 35 µM (inactive) |
| O=C(CN1CCCCC1)N1CCCc2ccccc21 | > 35 µM (inactive) |
| CCOC(=O)c1sc(N(Cc2ccccc2)C(=O)COC(=O)c2ccc(O)cc2)nc1C | 12.2 µM |
| O=C(C1CCCN(Cc2ccccc2F)C1)N1CCc2ccccc2C1 (stereo not drawn) | > 35 µM (inactive) |
| CN(CC1CCCO1)S(=O)(=O)c1ccc(C(=O)Nc2nccs2)cc1 (stereo not drawn) | > 35 µM (inactive) |
| CC(=O)N(O)CCCCCNC(=O)CCC(=O)N(O)CCCCCNC(=O)CCC(=O)N(O)CCCCCN | 5.56 µM |
| Cc1cc(NC(c2cccnc2)c2ccc3cccnc3c2O)no1 (stereo not drawn) | 23.3 µM |
| Cc1ccc(NC(=S)N(Cc2cccs2)Cc2cc3cccc(C)c3[nH]c2=O)cc1 | > 35 µM (inactive) |
| CC(=O)NCCC(=O)Nc1cc(S(=O)(=O)N2CCOCC2)ccc1N1CCOCC1 | > 35 µM (inactive) |
| Oc1[nH]c2ccccc2c1N=NC(=S)N1CCOCC1 | 8 µM |
| CCc1ccc(C2C(=O)c3ccccc3C2=O)cc1 | > 35 µM (inactive) |
| COc1ccc(CCNC(=O)c2cc(-c3cccs3)on2)cc1OC | 7.39 µM |
| CS(=O)(=O)c1ccc2nc(NC(=O)C3CC3)sc2c1 | > 35 µM (inactive) |
| Cc1cc(C)c2c(N)c3ccccc3nc2n1 | 17.4 µM |
| Cc1cc(C)n(-c2ccc3cccc(NS(C)(=O)=O)c3n2)n1 | 5.59 µM |
| O=C(O)c1cccnc1SCc1ccccc1Cl | > 35 µM (inactive) |
| Cc1ccc2[nH]c3c(=O)n(CC(=O)NCCCN(C)Cc4ccccc4)ncc3c2c1 | > 35 µM (inactive) |
| CCC/C(=N/NC(=O)c1cccc(Cl)c1)c1ccccc1 | > 35 µM (inactive) |
| COc1ccc(-c2nc(C#N)c(N3CCN(C(=O)c4ccco4)CC3)o2)cc1OC | > 35 µM (inactive) |
| Cn1c(=O)cc(C(=O)N/N=C/c2ccc(F)cc2)[nH]c1=O | > 35 µM (inactive) |
| O=C(NC1CCCC1)c1cc(-c2ccccc2)on1 | 16.3 µM |
| COc1ccc(C(=O)N2CCCCCC2)cc1S(=O)(=O)N1CCOCC1 | > 35 µM (inactive) |
| CC(=O)c1ccc(N(C(=O)c2csnn2)C(C(=O)NC(C)(C)C)c2cccs2)cc1 (stereo not drawn) | > 35 µM (inactive) |
| CCN(CC)c1ccc(/C=N/NC(=O)c2cccc(S(=O)(=O)N3CCOCC3)c2)c(O)c1 | 1.13 µM |

| Compound | EC50 |
| --- | --- |
| COc1ccc(C2(C)NC(=O)NC2=O)cc1OC (stereo not drawn) | > 35 µM (inactive) |
| COc1ccc(F)cc1CSc1nnnn1-c1ccc(O)cc1 | > 35 µM (inactive) |
| CSc1sc(C(=O)N2CCCCC2)c(-c2cccs2)c1C#N | > 35 µM (inactive) |
| Cc1cc(C)[n+](Cc2ccccc2)cc1C(N)=O | > 35 µM (inactive) |
| Cc1ccc(-n2cc(CN3CCC(CO)(Cc4ccccc4)CC3)cn2)cc1 | > 35 µM (inactive) |
| Cc1cc(SCC(=O)N/N=C/c2ccc(O)c(O)c2O)c(C)cc1Br | > 35 µM (inactive) |
| CN(Cc1cccs1)C(=O)CSc1nc(N)cc(N)n1 | > 35 µM (inactive) |
| CCOc1cccc(/C=N/Nc2ccc(S(=O)(=O)N(CC)CC)cn2)c1O | 3.59 µM |
| CCNC(=O)COc1cccc(C(=O)NCc2ccccc2)c1 | > 35 µM (inactive) |
| CCOC(=O)c1c(S(=O)(=O)N2CCCC2)c(C)n(C)c1C | > 35 µM (inactive) |
| Cc1cc(Cl)n2c(nc3cc(F)c(F)cc32)c1C#N | > 35 µM (inactive) |
| CC(Oc1ccc2c3c(c(=O)oc2c1)CCCC3)C(=O)NCC(O)c1ccccc1 (stereo not drawn) | > 35 µM (inactive) |
| CCc1ccc(OCC(=O)Nc2ccncc2)c(Br)c1 | > 35 µM (inactive) |
| COc1ccc(CNC(=O)CN(CC2CCCO2)C(=O)CNS(=O)(=O)c2ccc(C)cc2)cc1 (stereo not drawn) | > 35 µM (inactive) |
| CCCC(=O)NC(c1cccs1)c1cc(Cl)c2cccnc2c1O (stereo not drawn) | 7.25 µM |
| CC(=O)Nc1nc2ccccc2n1CCOc1ccccc1Cl | > 35 µM (inactive) |
| CCOC(=O)c1cc2c(ccn2C)n1CC(=O)N1CCN(c2ccccc2)CC1 | > 35 µM (inactive) |
| Cc1ccn2c(Nc3ccccc3C)c(-c3ccccn3)nc2c1 | 6.66 µM |
| CC(C(=O)Nc1ccccc1-c1ccccc1)N1CCN(C(=O)c2ccccc2)CC1 (stereo not drawn) | > 35 µM (inactive) |
| CC(=O)Nc1ccc(S(=O)(=O)/N=C2\C(=O)c3ccccc3C([O-])=C2n2cc[n+](-c3ccccn3)c2)cc1 | > 35 µM (inactive) |
| O=C(CSc1nc2ccccc2c(=O)n1-c1ccccc1)NC(=O)CN1CCCC1=O | > 35 µM (inactive) |
| C/C(=N\OCc1nc2ccccc2c(=O)n1/N=C/c1cc(C)cc([N+](=O)[O-])c1O)c1ccccc1 | > 35 µM (inactive) |
| COc1ccc(CN(C)CC(=O)Nc2ccc(SC(F)F)cc2)cc1OC | > 35 µM (inactive) |
| O=C(N/N=C/c1c(O)ccc2ccccc12)c1cccc(C(F)(F)F)c1 | 8.56 µM |
| CCCCNC(=O)c1cc(-c2ccc(F)cc2)on1 | 9.23 µM |
